Laboratory results: patent US20170044222A1, “Anti-Microbial Coatings and Devices” (priority 2015, published 2017)
Values joined by “and” are separate entries in the source; they are usually repeats but may differ in a detail not shown here. Identical values can stand only once. “Also recorded” adds a separate entry of the source. Ends that are not written are not given here.

What was measured:
keratinocyte = conditions: cited from earlier work
epithelial cells = conditions: cited from earlier work
[1] = system: Escherichia coli HB101 (ATCC 33694); test: Bacterial mortality on peptide-coated QCM-D sensors (LIVE/DEAD BacLight), E. coli; type: cell-based; conditions: for mortality of E. coli: 1 hour exposure to surface-bound peptide, PEG binding at 23° C; for bactericidal activity against E. coli compared across tether lengths: C-CHY1 tethered via PEG 866, 2000 or 7500, 1 hour exposure
Experimental: (§1) Bacterial Strains and Culturing. Escherichia coli HB101 (ATCC 33694) and Staphylococcus aureus (ATCC 48366) were cultured overnight in Luria-Bertani broth (20 g/L). For QCM-D and toxicity studies, cells were harvested at the late logarithmic phase in their growth curve, as confirmed by absorbance measurements (OD(600)=0.7-1.0 arbitrary units) (Thermo Scientific USA, Waltham, Mass. USA). The cells were centrifuged at 1284×g (Centrific Thermo Scientific, Waltham, Mass. USA) and re-suspended in 0.01 M, pH 7.2 phosphate buffered saline (PBS) (Sigma Aldrich, St. Louis, Mo. USA) twice, and then diluted 100-fold to approximately 10^8 cfu/mL.
(§2) Changes in frequency (Δf, Hz) and dissipation (ΔD, ×10-6 Hz) at the 3rd, 5th, 7th, 9th and 11th overtones were monitored at a constant 23° C. in all chambers using a Q-Sense E4 QCM-D system (Biolin Scientific, Stockholm, Sweden). All flow rates for the solutions were at 0.1 mL/min unless otherwise noted, and all volumes given are on a per chamber basis. PBS/EDTA (pH 7.2) buffer was used to establish a stable baseline measurement. Maleimide PEG N-hydroxysuccinimide ester molecules (MAL-PEG-NHS) with molecular weights (MW) of 866 (ThermoScientific, Waltham Mass., USA), 2000, or 7500 (JenKem Technology USA Inc., Allen, Tex. USA) were purchased. These will be referred to as PEG 866, PEG 2000 and PEG 7500, respectively. One mL of 100 μM MAL-PEG-NHS was flowed through the QCM-D and subsequently incubated for 30 min. Crystals were then rinsed with 1.2 mL of the PBS/EDTA (pH 7.2) buffer. Similarly, 1.25 mL of 10 μM C-CHY1 solution was then flown over the sensors and allowed to incubate for 30 min. To rinse excess C-CHY1 off the surface and prepare for the introduction of 2 mL bacteria, a 45 min PBS rinse at 0.3 mL/min was first flowed through the QCM-D. The dilute bacterial solution was allowed to incubate for 1 hour, followed by a final 2 mL PBS (pH 7.2) rinse. The crystals were removed from the chambers and placed in individual petri dishes containing 0.85% (w/v) NaCl solution for bacterial viability testing.
QCM-D Control Experiments: Physical Adsorption of CHY1. Similarly, SiO2-coated sensors were used for physical adsorption of unmodified CHY1 and were prepared as described above. For this experiment there was no APTMS functionalization or PEG flow, thus, after cleaning, the crystals were placed immediately into the QCM-D, PBS (pH 7.2) was used to establish a baseline and 1.25 mL of 10 μM CHY1 solution was introduced. Then, flow was stopped and CHY1 was incubated for 30 min. […]
(§3) Bacterial Mortality. Bacterial mortality was determined immediately after the final rinse of the QCM-D experiment. […]

[2] = QCM-D mass attachment, layer thickness and areal mass of tether/peptide layers (Sauerbrey and Voigt-Kelvin); type: physicochemical; conditions: for Chrysophsin-1 attachment ng Voigt-Kelvin / Chrysophsin-1 attachment ng Sauerbrey: 10 μM peptide, 23° C; for Chrysophsin-1 attachment ng Voigt-Kelvin: Voigt-Kelvin viscoelastic model; for Chrysophsin-1 attachment ng Sauerbrey: mean of 3rd-11th overtones ± standard error; for C-CHY1 areal mass (ng/cm^2) Sauerbrey: Sauerbrey estimation divided by crystal surface area; for C-CHY1 areal mass (ng/cm^2) Voigt-Kelvin / PEG/C-CHY1 layer thickness (nm) Voigt-Kelvin: Voigt-Kelvin model; for C-CHY1 areal mass (ng/cm^2) Voigt-Kelvin: includes PEG spacer, attached C-CHY1 and trapped buffer; for PEG/C-CHY1 layer thickness (nm) Voigt-Kelvin: tether plus peptide film, or physically-adsorbed CHY1 film
Experimental: Referring to FIG. 1, the surface is functionalized with the anti-microbial peptide via a flexible linker molecule and exposed to bacteria in the QCM-D using QCM-D sensors as the substrate. Referring to FIG. 2 QCM-D was used to monitor covalent attachment in real-time of the PEG spacer molecule followed by introduction of the C-CHY1 peptide to the functionalized SiO2 surface (FIG. 2). According to the Sauerbrey calculation, the Δm due to PEG spacers is between 2 and 100 ng per crystal (Table 1, below; FIG. 3). The mass of PEG attached decreases with increasing tether length (FIG. 3). PEGylated surfaces show a rigid surface (ΔD values from +1×10^−6 to +2×10^−6 Hz) compared to the bulk fluid baseline, validating the use of Eqn. 1 and 2 for PEG layer calculations. When C-CHY1 is introduced, there is a rapid decrease of Δf corresponding to a Δm of 0.8 to 2.2 μg (Table 1) bound to the surface. This step is accompanied by a large increase in ΔD from near +2×10^−6 to +20×10^−6 Hz after the introduction of C-CHY1. Comparatively, CHY1 introduction leads to a Δf decrease corresponding a Δm of about 0.4 μg of CHY1 being physically-adsorbed on the surface.
Thus, parameters of the system were modeled using the Voigt-Kelvin extended viscoelastic model in Q-Tools software (Biolin Scientific, Stockholm, Sweden). This model corrects the Sauerbrey estimations for higher energy dissipation by adding terms to the Δf relation to mass (Eqn. 3) and ΔD relation to film rigidity (Eqn. 4).
Where ηL is the viscosity of the bulk liquid assumed to be water (kg/m·s); δL, and δf are the decay lengths of the acoustic wave in the bulk liquid and film (m), respectively; mq and mf […], respectively; ρf is the film density (kg/m^3). The layer was modeled to get numerical outputs for layer viscosity, density, and shear modulus (ηm, ρm, and μm), and film thickness. All overtones were modeled at once. The bulk liquid, predominantly PBS or PBS/EDTA, was assumed to have the same viscosity and density as water at 23° C. Model step size and output ranges were changed based on calculated theoretical values using estimated extended molecule size, and the lowest chi square value (χ^2) was taken. Once values of thickness (nm) and density (kg/m^3) were found with the model, the two were multiplied to calculate areal mass in ng/cm^2.
QCM-D: Covalent Linking of C-CHY1. SiO2-coated quartz crystal sensors from Biolin Scientific (Stockholm, Sweden) were used as immobilization platforms for the modified C-CHY1. Before use, SiO2 sensors were cleaned in the QCM-D at 40° C. using ethanol, DI water, 2% sodium dodecyl sulfate (w/v), DI water again, and then nitrogen dried. Lastly, sensor surfaces were treated for 2 min using an oxygen plasma cleaner (SPI Supplies, PA USA) to both clean and functionalize the surface. The SiO2 crystals were then silanized by submerging in a 10% (v/v) (3-Aminopropyl)-trimethoxysilane (APTMS) in methanol solution for 20 min. Each sensor was then rinsed twice thoroughly with methanol and DI water and placed in each QCM-D chamber.
Changes in frequency (Δf, Hz) and dissipation (ΔD, ×10-6 Hz) at the 3rd, 5th, 7th, 9th and 11th overtones were monitored at a constant 23° C. in all chambers using a Q-Sense E4 QCM-D system (Biolin Scientific, Stockholm, Sweden). All flow rates for the solutions were at 0.1 mL/min unless otherwise noted, and all volumes given are on a per chamber basis. PBS/EDTA (pH 7.2) buffer was used to establish a stable baseline measurement. Maleimide PEG N-hydroxysuccinimide ester molecules (MAL-PEG-NHS) with molecular weights (MW) of 866 (ThermoScientific, Waltham Mass., USA), 2000, or 7500 (JenKem Technology USA Inc., Allen, Tex. USA) were purchased. These will be referred to as PEG 866, PEG 2000 and PEG 7500, respectively. One mL of 100 μM MAL-PEG-NHS was flowed through the QCM-D and subsequently incubated for 30 min. Crystals were then rinsed with 1.2 mL of the PBS/EDTA (pH 7.2) buffer. […]

[3] = system: Staphylococcus aureus (ATCC 48366); test: Bacterial mortality on peptide-coated QCM-D sensors (LIVE/DEAD BacLight), S. aureus; type: cell-based; conditions: for bactericidal activity against S. aureus compared across tether lengths: C-CHY1 tethered via PEG 866, 2000 or 7500, 1 hour exposure; for mortality of S. aureus: 1 hour exposure to surface-bound peptide, PEG binding at 23° C
Experimental: as §1, §2
QCM-D Control Experiments: Physical Adsorption of CHY1. Similarly, SiO2-coated sensors were used for physical adsorption of unmodified CHY1 and were prepared as described above. For this experiment there was no APTMS functionalization or PEG flow, thus, after cleaning, the crystals were placed immediately into the QCM-D, PBS (pH 7.2) was used to establish a baseline and 1.25 mL of 10 μM CHY1 solution was introduced. Then, flow was stopped and CHY1 was incubated for 30 min. The rest of the protocol described in the previous section was then followed, including the 0.3 mL/min PBS rinse, bacterial flow, bacterial incubation and final PBS rinse. The crystals were removed from the chambers and placed in individual petri dishes containing 0.85% (w/v) NaCl solution for bacterial viability testing. For the next type of control, crystals that had never been coated with APTMS were cleaned and placed into the QCM-D chambers without functionalization. Starting with a PBS rinse, the crystals were exposed to bacteria solution for 1 hour and then rinsed before imaging. For the APTMS control, crystals were cleaned and functionalized with APTMS. Then the procedure continued starting with a PBS rinse (pH 7.2), bacteria introduction, incubation, and a final rinse before imaging. […]
as §3

Molecule	concentration that negatively affects keratinocyte viability (keratinocyte)	concentration with significant toxicity against epithelial cells (epithelial cells)	mortality of E. coli [1] [%]	Chrysophsin-1 attachment ng Voigt-Kelvin ([2]; QCM-D) [ng]	Chrysophsin-1 attachment ng Sauerbrey ([2]; QCM-D) [ng]	C-CHY1 areal mass (ng/cm^2) Sauerbrey ([2]; QCM-D) [ng/cm^2]	C-CHY1 areal mass (ng/cm^2) Voigt-Kelvin ([2]; QCM-D)	bactericidal activity against E. coli compared across tether lengths [1]	PEG/C-CHY1 layer thickness (nm) Voigt-Kelvin ([2]; QCM-D)	bactericidal activity against S. aureus compared across tether lengths [3]	PEG/C-CHY1 layer thickness (nm) Voigt-Kelvin ([2]; QCM-D, listed as No Tether (PHYS-ADSORB)) [nm]	Δm bound to the surface on peptide introduction ([2]; QCM-D, from Δf decrease on peptide flow, before rinse)	peptide remaining adsorbed after rinse ([2]; physical adsorption, after PBS rinse)	mortality of S. aureus [3] [%]	extension of layer: modelled thickness as percent of theoretical maximum thickness ([2]; Voigt-Kelvin thickness vs theoretical maximum) [%]	mortality of S. aureus after temperature-optimized PEG binding ([3]; PEG 7500 binding at 55° C, back to 23° C for C-CHY1 binding and 1 hour S. aureus incubation) [%]
LL-37: human derived cathelicidin peptide	10															
CC[C@H](C)[C@H](NC(=O)CN)C(=O)NCC(=O)N[C@@H](C)C(=O)N[C@H](C(=O)N[C@@H](CC(C)C)C(=O)N[C@@H](CCCCN)C(=O)N[C@H](C(=O)N[C@@H](CC(C)C)C(=O)N[C@H](C(=O)N[C@H](C(=O)NCC(=O)N[C@@H](CC(C)C)C(=O)N1CCC[C@H]1C(=O)N[C@@H](C)C(=O)N[C@@H](CC(C)C)C(=O)N[C@H](C(=O)N[C@@H](CO)C(=O)N[C@@H](Cc1c[nH]c2ccccc12)C(=O)N[C@H](C(=O)N[C@@H](CCCCN)C(=O)N[C@@H](CCCNC(=N)N)C(=O)N[C@@H](CCCCN)C(=O)N[C@@H](CCCNC(=N)N)C(=O)N[C@@H](CCC(N)=O)C(=O)N[C@@H](CCC(N)=O)C(N)=O)[C@@H](C)CC)[C@@H](C)CC)[C@@H](C)O)[C@@H](C)O)C(C)C)C(C)C [melittin]		1.2														
Maleimide PEG N-hydroxysuccinimide ester [PEG 866]			46±2.3	835.2 ± 168	874.0 ± 48.8	1113 ± 62.2	1063±215 ng/cm^2									
Maleimide PEG N-hydroxysuccinimide ester [PEG 2000]				2284 ± 113	2238 ± 60.4	2850 ± 76.9	2909±144 ng/cm^2	lowest ability to kill	17.6±1.3 nm and 17.6±1.32 nm	lowest ability to kill						
FFGWLIKGAIHAGKAIHGLIHRRRH [CHY1, Chrysophsin-1, reference compound]			52.3±1.2	373.3 ± 58.6	204.9 ± 7.99	260.9 ± 10.2	475.3 ± 74.6 ng/cm^2		2.5±0.5 nm		2.50 ± 0.49	about 0.4 μg	about 50%	56.7±1.1		
Maleimide PEG N-hydroxysuccinimide ester [PEG 7500]				1870 ± 176	1753 ± 43.9	2232 ± 55.0	2381±223 ng/cm^2 and 2381 ± 224 ng/cm^2	most efficient bactericidal activity; also recorded: highest activity	21.9±1.86 nm	most efficient bactericidal activity; also recorded: highest activity				64±4.5	38	91±6.9
